The nature of data set [1]: Microsomal stability, human liver microsomes (predicted hepatic clearance). The note with it: predicted from in vitro microsomal stability data.
A further data set addresses GLP-1R (Homo sapiens, UniProt P43220). In words: GLP-1R activation: cAMP increase in CHO cells stably expressing GLP-1R. It counts as cell-based.
Setting [2] is: cAMP increase, CHO cells stably expressing GLP-1R, 10 point dose response, 30 minutes incubation, read-out: EC50.

Structures are written as SMILES. Like-named read-outs stand apart in the source and are kept apart here.

Sequence of GLP-1R (P43220 24-463): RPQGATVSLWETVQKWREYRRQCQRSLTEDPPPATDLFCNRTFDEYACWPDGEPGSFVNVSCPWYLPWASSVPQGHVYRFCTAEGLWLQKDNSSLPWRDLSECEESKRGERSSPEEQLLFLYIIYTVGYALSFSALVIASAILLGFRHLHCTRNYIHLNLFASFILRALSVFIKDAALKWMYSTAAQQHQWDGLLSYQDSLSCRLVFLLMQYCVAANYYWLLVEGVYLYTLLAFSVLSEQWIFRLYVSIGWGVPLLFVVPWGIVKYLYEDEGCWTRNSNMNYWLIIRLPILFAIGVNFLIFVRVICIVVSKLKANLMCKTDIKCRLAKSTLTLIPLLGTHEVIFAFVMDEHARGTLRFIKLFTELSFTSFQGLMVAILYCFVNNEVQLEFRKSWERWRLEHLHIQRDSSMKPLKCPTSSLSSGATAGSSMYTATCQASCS

As for `COCCn1c(Cc2cc(F)c(-c3cccc(OCc4ccc(Cl)cc4)n3)cc2F)nc2ccc(C(=O)O)cc21` [Example 602, 2-(4-(6-((4-chlorobenzyl)oxy)pyridin-2-yl)-2,5-difluorobenzyl)-1-(2-methoxyethyl)-1H-benzo[d]imidazole-6-carboxylic acid], the “Predicted Hepatic Clearance (Pred. Cl.)” value in data set [1] is on record as 0.17 L/h/kg. At GLP-1R (setting [2]), the EC50 is 1.17 nM.

Regarding `COCCn1c(Cc2cc(F)c(-c3cccc(OCc4ccc(C#N)c(F)c4)n3)cc2F)nc2ccc(C(=O)O)cc21` [Example 603, 2-(4-(6-((4-cyano-3-fluorobenzyl)oxy)pyridin-2-yl)-2,5-difluorobenzyl)-1-(2-methoxyethyl)-1H-benzo[d]imidazole-6-carboxylic acid], the “Predicted Hepatic Clearance (Pred. Cl.)” value in data set [1] is on record as 0.17 L/h/kg. Further, the EC50 on GLP-1R (EC50 (nM)) stood at 4.13 nM.

Consider `COCCn1c(Cc2cc(F)c(-c3cccc(OCc4ccc(C#N)cc4)n3)cc2F)nc2ccc(C(=O)O)cc21` [Example 604, 2-(4-(6-((4-cyanobenzyl)oxy)pyridin-2-yl)-2,5-difluorobenzyl)-1-(2-methoxyethyl)-1H-benzo[d]imidazole-6-carboxylic acid], for which the “Predicted Hepatic Clearance (Pred. Cl.)” value in data set [1] is recorded as 0.27 L/h/kg. Further, the EC50 on GLP-1R (setting [2]) was determined as 0.92 nM.

On to `N#Cc1ccc(COc2cccc(-c3cc(F)c(Cc4nc5ccc(C(=O)O)cc5n4Cc4ncco4)cc3F)n2)c(F)c1` [Example 605, 2-(4-(6-((4-cyano-2-fluorobenzyl)oxy)pyridin-2-yl)-2,5-difluorobenzyl)-1-(oxazol-2-ylmethyl)-1H-benzo[d]imidazole-6-carboxylic acid], for which the “Predicted Hepatic Clearance (Pred. Cl.)” value in data set [1] is given as 0.3 L/h/kg. Further, on GLP-1R (setting [2]), the EC50 came out at 1.57 nM.

Regarding `Cc1cc(Cn2c(Cc3ccc(-c4cccc(OCc5ccc(C#N)cc5F)n4)cc3F)nc3ccc(C(=O)O)cc32)no1` [Example 606], in data set [1], the “Predicted Hepatic Clearance (Pred. Cl.)” value was 0.11 L/h/kg. Further, the EC50 at GLP-1R (setting [2]) came out at 178 nM.

Consider `Cn1ccnc1Cn1c(Cc2ccc(-c3cccc(OCc4ccc(C#N)cc4F)n3)cc2F)nc2ccc(C(=O)O)cc21` [Example 607], for which the “Predicted Hepatic Clearance (Pred. Cl.)” value in data set [1] is recorded as 0.18 L/h/kg. The concentration giving a half-maximal response (EC50) at GLP-1R (setting [2]) stood at 108 nM.

With `O=C(O)c1ccc2nc(Cc3cc(F)c(-c4cccc(OCc5ccc(C(F)F)cc5F)n4)cc3F)n(Cc3ncco3)c2c1` [Example 608], the “Predicted Hepatic Clearance (Pred. Cl.)” value in data set [1] was 0.11 L/h/kg. The EC50 at GLP-1R (setting [2]) stood at 0.74 nM.

Regarding `O=C(O)c1ccc2nc(Cc3cc(F)c(-c4cccc(OCc5ccc(C(F)F)cc5F)n4)cc3F)n(Cc3ccon3)c2c1` [Example 609], in data set [1], the “Predicted Hepatic Clearance (Pred. Cl.)” value is on record as 0.11 L/h/kg. Also, the EC50 on GLP-1R (setting [2]) amounted to 0.15 nM.

As to `N#Cc1ccc(COc2cccc(-c3cc(F)c(Cc4nc5ccc(C(=O)O)cc5n4[C@H]4COC[C@H]4F)cc3F)n2)c(F)c1` [Example 611], the “Predicted Hepatic Clearance (Pred. Cl.)” value in data set [1] was 0.29 L/h/kg. On GLP-1R (setting [2]), the EC50 is 0.29 nM.

Consider `N#Cc1ccc(COc2cccc(-c3cc(F)c(Cc4nc5ccc(C(=O)O)cc5n4C4COCC4(F)F)cc3F)n2)c(F)c1` (stereo not shown) [Example 612], for which the “Predicted Hepatic Clearance (Pred. Cl.)” value in data set [1] is given as 0.23 L/h/kg. For the same compound, the EC50 at GLP-1R (setting [2]) turned out to be 0.22 nM.

As for `N#Cc1ccc(COc2cccc(-c3cc(F)c(Cc4nc5ccc(C(=O)O)cc5n4[C@H]4COC[C@H]4O)cc3F)n2)c(F)c1` [Example 613], in data set [1], the “Predicted Hepatic Clearance (Pred. Cl.)” value is recorded as 0.39 L/h/kg. Besides, the EC50 at GLP-1R (setting [2]) was 0.54 nM.

Consider `N#Cc1ccc(COc2cccc(-c3cc(F)c(Cc4nc5ccc(C(=O)O)cc5n4[C@@H]4COC[C@@H]4O)cc3F)n2)c(F)c1` [Example 614], for which the “Predicted Hepatic Clearance (Pred. Cl.)” value in data set [1] is listed as 0.11 L/h/kg. Also, the EC50 at GLP-1R (setting [2]) is 0.79 nM.

Turning to `Cc1nc(Cn2c(Cc3cc(F)c(-c4cccc(OCc5ccc(C#N)cc5F)n4)cc3F)nc3ccc(C(=O)O)cc32)oc1C` [Example 615], the “Predicted Hepatic Clearance (Pred. Cl.)” value in data set [1] is listed as 0.14 L/h/kg. Further, on GLP-1R (setting [2]), the concentration giving a half-maximal response (EC50) was 1420 nM.

Turning to `Cc1cnc(Cn2c(Cc3cc(F)c(-c4cccc(OCc5ccc(C#N)cc5F)n4)cc3F)nc3ccc(C(=O)O)cc32)o1` [Example 616], the “Predicted Hepatic Clearance (Pred. Cl.)” value in data set [1] is given as 0.50 L/h/kg. In addition, the EC50 on GLP-1R (setting [2]) was 26.9 nM.

Broadly, the EC50 is the concentration giving half of the maximal effect.
